As a reminder, the EC50 is the concentration giving half of the maximal effect. The term CC50 denotes the concentration at which the toxic effect on the cells reaches its halfway point. Read a high CC50 as better tolerance by the cells.

Among the data in ChEMBL document CHEMBL1156829 (Proc Natl Acad Sci U S A, 2008) are EC50 and CC50 values, retold here.

Series [1] concerns Plasmodium falciparum. As to the kind of experiment: NOVARTIS: Inhibition of Plasmodium falciparum 3D7 (drug-susceptible) proliferation in erythrocyte-based infection assay. The class given is functional, organism-based. The conditions noted are these: Plasmodium falciparum, 3D7.
The subject of series [2] is Plasmodium falciparum. The series can be described thus: NOVARTIS: Inhibition of Plasmodium falciparum W2 (drug-resistant) proliferation in erythrocyte-based infection assay. The conditions noted are these: Plasmodium falciparum, W2; read-out: EC50. The class given is functional, organism-based.
Series [3] in a line: NOVARTIS: Cytotoxicity against human hepatocellular carcinoma cell line (Huh7). The class given is toxicity, cell-based, Huh-7. The conditions noted are these: Huh7 cells (hepatocellular carcinoma cell line).

`CCOC(=O)c1nc2nc(C)cc(O)n2n1`: the EC50 is above 739 nM in series [1] and above 940 nM in series [2]. The compound further had a CC50 in series [3] above 10000 nM.
Consider `CO[C@H]1[C@@H](C)[C@@H]([C@H](C)C2O[C@@]3(CC[C@@](C)([C@H]4CC[C@@](C)([C@@H]5O[C@@H]([C@H]6O[C@](C)(O)[C@H](C)C[C@@H]6C)C[C@@H]5C)O4)O3)C[C@H](O)[C@@H]2C)O[C@@](O)([C@H](C)C(=O)O)[C@H]1C` (some centres undefined), for which the EC50 in series [1] turned out to be 1140 nM; in series [2], 938 nM. This compound also registered a cytotoxic concentration (CC50) in series [3] above 10000 nM.
The corresponding values for `Cc1cccc(-n2c(-c3ccccc3)nc3ccc(-c4ccc5nc(-c6ccccc6)n(-c6cccc(C)c6)c(=O)c5c4)cc3c2=O)c1` are above 1200 nM, above 939 nM and above 10000 nM.
As to `Cc1cc2nc(NC(=N)N)nc(C)c2cc1C`, the EC50 was 2660 nM in series [1] and above 9300 nM in series [2]. Moreover, the CC50 in series [3] was above 100000 nM.
In the case of `CCOC(=O)C1=C(C)N=c2sc(=Cc3cccc(OCc4cccc5ccccc45)c3)c(=O)n2C1c1ccc(OC)cc1OC` (centres undefined), the results for the EC50 in series [1] and in series [2] were above 12500 nM and above 9270 nM, respectively. Further, the CC50 in series [3] was above 100000 nM.
As for `Cc1c(Cl)cccc1NCC(=O)NN=C1CCCC1`, the EC50 in series [1] is above 1250 nM; in series [2] it was above 948 nM. The CC50 in series [3] was above 10000 nM.
Regarding `Oc1ccc(Nc2nc(N3CCCC3)c3ccccc3n2)cc1`, the EC50 in series [1] stood at 584 nM; in series [2] it was 926 nM. The same compound yielded a CC50 in series [3] above 10000 nM.
On the same counts, the results for `CCCCNC(=O)N(CCCC(C)Nc1cc(OC)cc2cccnc12)Cc1ccc(OC)c(OC)c1` (centres undefined) are 1260 nM, 422 nM and above 4470 nM.
In the case of `CCOC(=O)c1cnn(-c2ccnc3cc(Cl)ccc23)c1CNC(C)c1cccs1` (centres undefined), the EC50 in series [1] is above 1560 nM; in series [2], above 944 nM. Besides, the CC50 in series [3] is above 10000 nM.
In the case of `Cc1cc(Nc2ccc(C)c(Cl)c2)n2ncnc2n1`, the figures for the EC50 in series [1] and in series [2] were 1400 nM and above 927 nM, respectively. In addition, the CC50 in series [3] was above 10000 nM.
On the same counts, the results for `CCCCCOc1ccc(/C=C2/N=C(c3ccccc3)OC2=O)cc1` are above 116 nM, above 944 nM and above 10000 nM.
As to `COCCNC(=O)c1ccc2c(=O)n(Cc3ccc4c(c3)OCO4)c(=S)[nH]c2c1`, the results for the EC50 in series [1] and in series [2] were above 533 nM and 943 nM, respectively. Further, the CC50 in series [3] is above 10000 nM.
The corresponding values for `CCOC(=O)C1=C(C)N/C(=C\c2cc(C)n(-c3cccc(Br)c3)c2C)C1=O` are above 1250 nM, above 926 nM and above 10000 nM.
On the same counts, the results for `CC(Cc1ccccc1)NCCCCCNC(C)Cc1ccccc1` (centres undefined) are 238 nM, 503 nM and 5320 nM.
Turning to `COc1cc(Br)c(/C=C2\Sc3ccccc3C2=O)cc1OC`, the EC50 in series [1] was above 1250 nM; in series [2] it was above 925 nM. The compound also came in with a CC50 in series [3] above 10000 nM.
As for `O=C(CCl)Nc1ccc(S(=O)(=O)OCC(F)(F)C(F)F)cc1`, the EC50 in series [1] is 1730 nM; in series [2], 1580 nM. In series [3], this compound registered a CC50 of 17100 nM.
As for `Cc1c(C#N)c2ccccc2n1CC(=O)Nc1ccc(Br)cc1`, the EC50 in series [1] worked out at 771 nM; in series [2], 1030 nM. This compound also gave a CC50 in series [3] of 11100 nM.
The corresponding values for `Cc1ccc([N+](=O)[O-])cc1-c1ccc(/C=C2/SC(=S)N(CC(=O)O)C2=O)o1` are above 1250 nM, above 940 nM and above 10000 nM.
On the same counts, the results for `COc1cccc(-c2ccc(O)c(CNCc3ccccc3OC)c2)n1` are 1090 nM, 939 nM and above 10000 nM.
On to `COc1ccc(C(=O)Nc2ccc(-c3nc4ccc(NC(=O)c5ccc(OC)cc5)cc4[nH]3)cc2)cc1`, for which the EC50 in series [1] amounted to 800 nM; in series [2], 810 nM. Besides, half-maximal cytotoxicity in series [3] (CC50) was put at 8780 nM.
The corresponding values for `CCOC(=O)C1=C(N)n2c(sc(=Cc3cccnc3)c2=O)=C(C(=O)OC)C1c1cccnc1` (centres undefined) are above 1250 nM, above 922 nM and above 10000 nM.
For `CCN(CC)CCN(Cc1cc2cc(OC)ccc2[nH]c1=O)C(=S)Nc1cccc(Cl)c1`, the EC50 in series [1] worked out at 1190 nM; in series [2], 2190 nM. In series [3], the CC50 came out at 23100 nM.
On the same counts, the results for `N#C/C(=C\C=C\c1ccc([N+](=O)[O-])o1)c1nc2ccccc2[nH]1` are 1050 nM, 946 nM and above 10000 nM.
Turning to `CC(=O)Nc1ccc(C(=O)N2CCC(Oc3cccc(CN(C)Cc4cccc5ccccc45)c3)CC2)cc1`, the EC50 was above 1250 nM in series [1] and 945 nM in series [2]. The compound also showed a CC50 in series [3] above 10000 nM.
With `COc1cc(C=NNC(=O)c2ccco2)ccc1OCc1ccc([N+](=O)[O-])cc1`, the EC50 in series [1] is above 1250 nM; in series [2], above 941 nM. The compound further gave a CC50 in series [3] above 10000 nM.
On to `C=CCOc1cccc(/C=C2/NC(C)=C(C(=O)OCC)C2=O)c1`, for which the figures for the EC50 in series [1] and in series [2] were above 1040 nM and above 933 nM, respectively. In series [3], this compound gave a CC50 above 10000 nM.
Turning to `CC1CCC(Nc2ccnc3cc(Cl)ccc23)CC1` (centres undefined), the figures for the EC50 in series [1] and in series [2] were 843 nM and 933 nM, respectively. For the same compound, the CC50 in series [3] was above 10000 nM.
On the same counts, the results for `COC(=O)c1c(-c2c(F)cccc2Cl)noc1C=CNc1ccccc1` are 11400 nM, 6980 nM and 73700 nM.
On to `CC1CC(=Cc2ccncc2)C(=O)C(=Cc2ccncc2)C1` (centres undefined), for which the EC50 in series [1] came out at 1630 nM; in series [2], 736 nM. Besides, half-maximal cytotoxicity in series [3] (CC50) was put at 7770 nM.
Consider `COc1ccc(N2C(=O)/C(=C3/C(=O)Nc4ccc(F)cc43)SC2=S)c(OC)c1`, for which the EC50 in series [1] was above 926 nM; in series [2] it was 947 nM. This compound also registered a CC50 in series [3] above 10000 nM.
With `O=C(COC(c1ccccc1)c1cccnc1)NCCNC(=O)OCc1ccccc1` (centres undefined), the EC50 in series [1] came to 967 nM; in series [2], 941 nM. The compound also came in with a CC50 in series [3] above 10000 nM.
For `CCOc1ccc(CN(C(=O)C(C)(C)CCl)C(C)CCCN(CC)CC)cc1` (centres undefined), the EC50 was above 878 nM in series [1] and 941 nM in series [2]. The compound further displayed a CC50 in series [3] above 10000 nM.
Take `COc1cc(NC(C)CCCN(Cc2ccccc2OC)S(=O)(=O)c2ccc(Br)cc2)c2ncccc2c1` (centres undefined): the EC50 in series [1] amounted to 945 nM; in series [2], 427 nM. In series [3], this compound displayed a CC50 of 4580 nM.
For `Cc1cccc(NC(=O)/C(C#N)=C/c2ccc(C)o2)c1`, the EC50 is above 1250 nM in series [1] and above 934 nM in series [2]. The same compound had a CC50 in series [3] above 10000 nM.
With `CCCOc1ncnc2c1sc1nc3c(cc12)COC(C)(C)C3`, the EC50 was above 967 nM in series [1] and above 936 nM in series [2]. Moreover, the CC50 in series [3] is above 10000 nM.
Take `CCCCN(C(=O)Nc1ccc(OCC)cc1)C(C)c1nc2ccccc2c(=O)n1-c1ccc(F)c(Cl)c1` (centres undefined): the EC50 in series [1] worked out at 1010 nM; in series [2] it was 935 nM. In series [3], this compound showed a CC50 above 10000 nM.
Take `Cn1c(=O)c2c(ncn2CC(O)CN=C2CCCCN2)n(C)c1=O` (centres undefined): the EC50 is above 1250 nM in series [1] and above 933 nM in series [2]. This compound yielded a CC50 in series [3] above 10000 nM.
As to `COc1ccc(NS(=O)(=O)c2cccc(C(=O)Nc3ccccc3[N+](=O)[O-])c2)cc1`, the EC50 in series [1] was above 12500 nM; in series [2], 4130 nM. In addition, in series [3], half-maximal cytotoxicity (CC50) was put at 44400 nM.
The corresponding values for `N#C/C(=C\n1cc(Cc2ccc(Cl)cc2Cl)c2ccccc21)c1nn(CCO)c(N)c1C#N` are 913 nM, 929 nM and above 10000 nM.
`Nc1cc(OC(=O)c2ccccc2)nn1S(=O)(=O)c1ccc(Cl)cc1`: the EC50 in series [1] was above 1250 nM; in series [2], 923 nM. The CC50 in series [3] was above 10000 nM.
For `CCN(CC)CCCN(Cc1cc2ccc(OC)cc2[nH]c1=O)C(=S)NCc1ccccc1`, the half-maximal effective concentration (EC50) in series [1] was determined as 3910 nM; in series [2] it was 2410 nM. In series [3], this compound displayed a CC50 of 25800 nM.
In the case of `O=C(Nc1ccccc1Cl)C1CCCN1C(=O)OCc1ccccc1` (centres undefined), the values for the EC50 in series [1] and in series [2] were above 1250 nM and above 929 nM, respectively. Besides, in series [3], the CC50 is above 10000 nM.
Turning to `N#C/C(=C\c1ccc(Sc2ccccc2)o1)c1nc2ccccc2[nH]1`, the EC50 in series [1] is 1510 nM; in series [2] it was 947 nM. Also, the CC50 in series [3] is above 10000 nM.
On the same counts, the results for `CCn1c(SCCCCNC(=O)c2cc([N+](=O)[O-])cc([N+](=O)[O-])c2)nc(-c2ccccc2)c1-c1ccccc1` are 724 nM, 612 nM and 6520 nM.
`O=C(NN=Cc1cc2ccccc2cc1O)c1cccnc1`: the EC50 came out at 871 nM in series [1] and 946 nM in series [2]. In series [3], this compound came in with a CC50 above 10000 nM.
The corresponding values for `Fc1ccc(CSc2ccc3nnc(-c4cccnc4)n3n2)cc1` are above 1250 nM, above 937 nM and above 10000 nM.
Consider `Cc1ccc2c(c1)C1CN(C)CCC1N2C(=O)c1cc2ccccc2o1` (centres undefined), for which the EC50 is above 1040 nM in series [1] and above 922 nM in series [2]. In addition, the CC50 in series [3] is above 10000 nM.
Regarding `CCn1c(SCCNC(=O)CC(C)C)nc(-c2ccccc2)c1-c1ccccc1`, the values for the EC50 in series [1] and in series [2] were above 1250 nM and above 922 nM, respectively. In addition, the CC50 in series [3] was above 9920 nM.
For the compound `CSc1oc(-c2ccccc2)nc1C(N)=O`, the results for the EC50 in series [1] and in series [2] were above 1200 nM and above 925 nM, respectively. This compound also returned a CC50 in series [3] above 10000 nM.
Turning to `CCOC(=O)Cn1cnc2c(nnn2Cc2ccc(F)cc2)c1=O`, the EC50 in series [1] amounted to 380 nM; in series [2], 160 nM. For the same compound, the CC50 in series [3] was above 1700 nM.
On to `O=C(COc1cccc(Cl)c1)Nc1nccs1`, for which the EC50 in series [1] was above 12500 nM; in series [2], above 9290 nM. Moreover, the CC50 in series [3] was above 100000 nM.
Turning to `Cc1cc(C)c2nc(SCC(=O)Nc3ccc4c(c3)OCCO4)cc(C)c2c1`, the values for the EC50 in series [1] and in series [2] were above 1250 nM and above 942 nM, respectively. In addition, the CC50 in series [3] was above 10000 nM.
As to `CC(C)(C)CC(C)(C)c1ccc(OCC(=O)NN=C2C(=O)Nc3ccccc32)c([N+](=O)[O-])c1`, the results for the EC50 in series [1] and in series [2] were above 1000 nM and 927 nM, respectively. The CC50 in series [3] is above 10000 nM.
